According to PMC9229563, “Pharmacokinetics and the Dermal Absorption of Bromochlorophene, a Cosmetic Preservative Ingredient, in Rats” (Toxics, 2022):
Like-named read-outs stand apart in the source and are kept apart here.

How the values were obtained:
[1] = cited from earlier work
[2] = Intravenous pharmacokinetics in rats; format: in vivo; conditions: rat; for half-life / AUC / AUC(0-inf) / clearance / Cmax / Vd: plasma, iv, n = 3; for half-life: glycerol formal, read-out: T1/2, terminal elimination half-life (converted); for clearance: read-out: CL, systemic clearance (converted); for Cmax: read-out: Cmax, peak plasma concentration; for Vd: read-out: Vd, volume of distribution
Experimental: Blood samples (>0.2 mL) for plasma were collected by cannulated right jugular vein at 1, 2, 5, 10, and 30 min, and 1, 2, 4, 6, 12, 24, 36, and 48 h post-dose. Plasma samples were harvested by centrifugation at 13,000 rpm for 10 min and stored at −20 °C until analysis.
To analyze the in vivo (dermal and i.v. application) samples, 50 µL of the plasma was used, and extraction and analysis methods were the same as in vitro samples.
In the in vivo study, the terminal elimination half-life (T1/2) was calculated to be 0.693/λz. The slope of the last phase (λz) is the individual estimate of the terminal elimination rate constant, which is calculated using log-linear regression of the terminal portions of the plasma concentration–time curves. The area under the plasma concentration–time curve from time zero to the last observation time point (AUCall) was calculated using the trapezoidal rule, and the AUC to infinity time (AUCinf) was obtained by adding Cn/λz to the AUCall (Cn: last concentration of chemical). Systemic clearance (CL) was calculated as dose/AUC. The apparent volume of the distribution (Vd) during the terminal phase was calculated as CL/λz. The peak plasma concentration (Cmax) and time to reach Cmax (Tmax) were determined directly from these observations. The relative bioavailability (F) after dermal application was calculated as F (%) = 100 (Doseiv·AUCdermal)/(Dosedermal·AUCiv).
The plasma concentration–time data were analyzed using a non-compartmental WinNonlin model (version 2.1, Pharsight, NC, USA) to acquire i.v. and dermal pharmacokinetic parameters.

[3] = Dermal pharmacokinetics / in vivo dermal absorption in rats; parameters: species or system rat
Experimental: Blood samples (approximately 0.2 mL) were taken periodically by cannulated right jugular vein at 15 and 30 min, and 1, 2, 4, 8, 12, 24, 36, and 48 h post-dose. […] To analyze the in vivo (dermal and i.v. application) samples, 50 µL of the plasma was used, and extraction and analysis methods were the same as in vitro samples. […] The slope of the last phase (λz) is the individual estimate of the terminal elimination rate constant, which is calculated using log-linear regression of the terminal portions of the plasma concentration–time curves. The area under the plasma concentration–time curve from time zero to the last observation time point (AUCall) was calculated using the trapezoidal rule, and the AUC to infinity time (AUCinf) was obtained by adding Cn/λz to the AUCall (Cn: last concentration of chemical). Systemic clearance (CL) was calculated as dose/AUC. The apparent volume of the distribution (Vd) during the terminal phase was calculated as CL/λz. The peak plasma concentration (Cmax) and time to reach Cmax (Tmax) were determined directly from these observations. […] The plasma concentration–time data were analyzed using a non-compartmental WinNonlin model (version 2.1, Pharsight, NC, USA) to acquire i.v. and dermal pharmacokinetic parameters.

[4] = Stability of BCP in receptor fluid (6% POE20); format: physicochemical; conditions: 0.5 mg/mL, 48 h, 32 °C, sink conditions, n = 3
Experimental: The in vitro dermal absorption study followed the guidelines of the Korea Ministry of Food and Drug Safety [15] with a Franz diffusion cell system consisting of a vision Microette auto-sampler, stirring drive, circulating water bath, stirring control, and autofill (Hanson, Chatsworth, CA, USA). The volume of the receptor fluid chamber was 12 mL and the temperature of the receptor fluid was maintained in a circulating water bath at 32 °C. […] The skin, after hydrating with normal saline for 5 min, was then placed between the donor and receptor compartments of the diffusion cells. […] Each formulation (~200 mg) was applied to 1.77 cm^2 of the donor chamber.

[5] = parameters: method as in Table S1; conditions: ref Table S1; cited from earlier work
[6] = system: androgen receptor; parameters: method as in PMID 33064576; conditions: in silico and in vitro studies; cited from earlier work
[7] = system: estrogen receptor α; parameters: method as in PMID 33064576; conditions: in silico and in vitro studies; cited from earlier work
[8] = system: glucocorticoid receptor; parameters: method as in PMID 33064576; conditions: in silico and in vitro studies; cited from earlier work
[9] = system: thyroid receptor α; parameters: method as in PMID 33064576; conditions: in silico and in vitro studies; cited from earlier work
[10] = system: thyroid receptor β; parameters: method as in PMID 33064576; conditions: in silico and in vitro studies; cited from earlier work
[11] = parameters: method as in PMID 34335256; conditions: female rats, oral, 28 days, 500 and 1000 mg/kg; cited from earlier work
[12] = parameters: method as in PMID 34335256; conditions: hydrogel formulation, 0.262 mg/kg rat dorsal application; cited from earlier work
[13] = system: gram-positive bacteria; parameters: method as in Table S1; conditions: ref Table S1; cited from earlier work
[14] = system: gram-negative bacteria; parameters: method as in Table S1; conditions: ref Table S1; cited from earlier work
[15] = system: yeasts / moulds; parameters: method as in Table S1; conditions: ref Table S1; cited from earlier work

CCCCC(CC)COC(=O)C=Cc1ccc(OC)cc1 (centres unmarked) [ethylhexyl methoxycinnamate]
LogPow [1]: 5.96

C[C@]12CC[C@H]3[C@@H](CCC4=CC(=O)CC[C@@]43C)[C@@H]1CC[C@@H]2O [testosterone, reference compound]
LogPow [1]: 3.3

CC1CC(OC(=O)c2ccccc2O)CC(C)(C)C1 (centres unmarked) [homosalate]
LogPow [1]: 5.94

COc1ccc(C(=O)c2ccccc2)c(O)c1 [benzophenone-3]
LogPow [1]: 3.58

Oc1c(Br)cc(Cl)cc1Cc1cc(Cl)cc(Br)c1O [BCP, 2,2'-Methylenbis (6-bromo-4-chlorophenol)]
half-life ([2]; i.v. 0.2 mg/kg): 34.5 ± 5.87 h
AUC ([2]; i.v. 0.2 mg/kg): 4190 ± 320 ng·h/mL
AUC(0-inf) ([2]; i.v. 0.2 mg/kg): 5860 ± 767 ng·h/mL
clearance ([2]; i.v. 0.2 mg/kg): 0.576 mL/min/kg
Cmax ([2]; i.v. 0.2 mg/kg): 4190 ± 1690 ng/mL
Vd ([2]; i.v. 0.2 mg/kg): 1.74 ± 0.072 L/kg
half-life ([2]; i.v. 1 mg/kg): 30.5 ± 1.83 h
AUC ([2]; i.v. 1 mg/kg): 30500 ng·h/mL
AUC(0-inf) ([2]; i.v. 1 mg/kg): 41600 ng·h/mL
clearance ([2]; i.v. 1 mg/kg): 0.401 mL/min/kg
Cmax ([2]; i.v. 1 mg/kg): 11400 ng/mL
Vd ([2]; i.v. 1 mg/kg): 1.06 ± 0.0502 L/kg
AUCs (AUCall and AUCinf) in plasma at 1 mg/kg versus 0.2 mg/kg ([2]; i.v.): approximately 7 fold
Representative (total) dermal absorption of BCP ([3]; determined from the in vivo PK / dermal study in rats): 12.20 ± 2.63%
bioavailability ([3]; rat, plasma, topical, 234 mg/kg formulation, read-out: F, dermal bioavailability): 12.2 ± 2.63%
Stability in 6% POE20 [4]: stable
Solubility in water [5]: < 5 µg/mL
Action on androgen receptor [6]: antagonist
Action on estrogen receptor α [7]: antagonist
Action on glucocorticoid receptor [8]: antagonist
Action on thyroid receptor α [9]: antagonist
Action on thyroid receptor β [10]: antagonist
Hematological and histopathological characteristics [11]: altered
BCP absorption [12]: 29.25 ± 6.09%
Effect of preservative, gram-positive bacteria [13]: good
Effect of preservative, gram-negative bacteria [14]: moderate
Effect of preservative, yeasts / moulds [15]: inadequate
LogPow ([1]; ref Table S1): 6.12
